From US20220408731A1, “MODIFIED ANTIMICROBIAL PEPTIDES” (priority 2021, published 2022)
Converted amounts (≈) assume the structure as drawn. Like-named read-outs stand apart in the source and are kept apart here. Square brackets hold non-standard residues; d marks the D form. Peptide text beside a SMILES is read from it. Dab = NCC[C@H](N)C(=O)O

Key:
[1] = tested on: F. oxysporum; test: Antifungal MIC assay in SFM; assay type: cell-based
[2] = tested on: Fusarium graminearum
[3] = tested on: Botrytis cinerea
[4] = tested on: P. capsici; test: Antifungal MIC assay in SFM; assay type: cell-based
[5] = tested on: Coccidioides sp.; assay type: cell-based
[6] = tested on: C. parapsilosis; test: Antifungal MIC, CLSI M27/M38, half-strength potato dextrose broth; assay type: cell-based, Candida parapsilosis; conditions: C. parapsilosis ATCC 22019; 24-72 hours
Experimental: (§1) Testing for antifungal activity used half-strength potato dextrose broth for peptides and RPMI for comparator antifungals fluconazole and voriconazole. CLSI M27 and M38 methodologies used for to measure MICs. Minimal Inhibitory Concentration (MIC) is the concentration of the compound, protein, or peptide at which there is no significant growth of the microorganism relative to the growth of the microorganism in growth medium lacking the compound, protein, or peptide.
(§2) […] The concentration range for peptides in potato dextrose broth was 0.06-2 mcg/ml, the concentration range for fluconazole was 0.125-64 mcg/ml, and the concentration range for voriconazole was 0.03-16 mcg/ml. MICs were determined at 24-72 hours.

[7] = tested on: Candida albicans; test: as above; assay type: cell-based
Experimental: as §1, §2

[8] = tested on: P. variotii; test: as above; assay type: cell-based; conditions: P. variotii MYA-363; 24-72 hours
Experimental: as §1, §2

[9] = tested on: Fusarium (F. solani); test: as above; assay type: cell-based; conditions: Fusarium F4 (F. solani)
Experimental: as §1, §2

[10] = tested on: Aspergillus fumigatus; test: as above; assay type: cell-based
Experimental: as §1, §2

[11] = tested on: Candida auris; test: as above; assay type: cell-based
Experimental: as §1, §2

[12] = tested on: C. krusei; test: as above; assay type: cell-based; conditions: C. krusei ATCC 6258; 24-72 hours
Experimental: as §1, §2

[13] = tested on: Fusarium (F. oxysporum); test: as above; assay type: cell-based
Experimental: as §1, §2

[14] = tested on: C. glabrata; test: Peptide or protein/Fluconazole combination, MIC and FICI; conditions: Nakaseomyces glabratus
[15] = tested on: C. albicans; test: as above; conditions: Candida albicans

Row | Compound | B. cinerea MIC [3] [µM] | MIC (μM) Botrytis cinerea [3] [µM] | MIC Values (μM) against B. cinerea [3] [µM] | SFM + 2 mM CaCl2 MIC [3] [µM] | SFM + 100 mM KCl MIC [3] [µM] | SFM + 100 mM NaCl MIC [3] [µM] | SFM MIC [3] [µM] | MIC 100% ([5]; Coccidioides sp. Cocci1) [µg/mL] | MIC 100% ([5]; Coccidioides sp. Cocci2) [µg/mL] | MIC 100% ([5]; Coccidioides sp. DI17-143) [µg/mL] | MIC 100% [6] [µg/mL] | MIC 100% ([7]; Candida albicans ATCC 90028) [µg/mL] | MIC 100% ([7]; Candida albicans CA3) [µg/mL] | MIC 100% ([7]; Candida albicans SC5314) [µg/mL] | MIC 100% [8] [µg/mL] | MIC 100% [9] [µg/mL] | MIC 100% ([10]; Aspergillus fumigatus AF293) [µg/mL] | MIC 100% ([10]; Aspergillus fumigatus DI15-106) [µg/mL] | MIC 100% ([10]; Aspergillus fumigatus DI15-116) [µg/mL] | MIC 100% ([11]; Candida auris DI17-46) [µg/mL] | also measured
1 | C[C@@H](O)[C@H](NC(=O)[C@H](CS)NC(=O)[C@H](Cc1ccccc1)NC(=O)[C@H](CS)NC(=O)[C@H](CCCNC(=N)N)NC(=O)[C@H](CCCNC(=N)N)NC(=O)[C@H](CCCNC(=N)N)NC(=O)[C@H](Cc1ccccc1)NC(=O)CNC(=O)[C@H](CCCNC(=N)N)NC(=O)[C@H](CS)NC(=O)[C@H](CCCNC(=N)N)NC(=O)CNC(=O)CN)C(=O)N[C@H](C(=O)N[C@@H](Cc1c[nH]cn1)C(=O)N[C@@H](CS)C(N)=O)[C@@H](C)O [GMA4C_AC, reference compound] (H-GGRCRGFRRRCFCTTHC-NH2; N-terminus assumed) | 1.5 to 3.0 | 3 (≈ 6.05 µg/mL) | 3 (≈ 6.05 µg/mL) | >6 | 6 | 3 | 3 | – | – | – | – | – | – | – | – | – | – | – | – | – | F. oxysporum MIC [1]: 6 µM; F. graminearum MIC [2]: 3 µM; MIC (μM) Fusarium graminearum [2]: 3 µM (≈ 6.05 µg/mL); MIC Values (μM) against F. graminearum [2]: 6 µM (≈ 12.1 µg/mL); Antifungal activity in presence of 100 mM NaCl or 100 mM KCl [3]: retain their antifungal activity; P. capsici MIC [4]: 1.5 µM
2 | NCC[C@H](NC(=O)CNC(=O)[C@@H](N)Cc1ccccc1)C(=O)N[C@@H](CS)C(=O)N[C@@H](CCN)C(=O)NCC(=O)N[C@@H](Cc1ccccc1)C(=O)N[C@@H](CCN)C(=O)N[C@@H](CCN)C(=O)N[C@@H](CCN)C(=O)N[C@@H](CS)C(=O)N[C@@H](Cc1ccccc1)C(=O)N[C@@H](CS)C(=O)N[C@@H](Cc1c[nH]c2ccccc12)C(=O)N[C@@H](CCN)C(=O)N[C@@H](Cc1c[nH]c2ccccc12)C(=O)N[C@@H](CS)C(N)=O [GMA4C_V5A, FG(Dab)C(Dab)GF(Dab)(Dab)(Dab)CFCW(Dab)WC-NH2] (H-FG[Dab]C[Dab]GF[Dab][Dab][Dab]CFCW[Dab]WC-NH2; N-terminus assumed) | – | 6 (≈ 11.8 µg/mL) | 3 (≈ 5.88 µg/mL) | >6 | >6 | 6 | 6 | 2 (≈ 1.02 µM) | 16 (≈ 8.17 µM) | 16 (≈ 8.17 µM) | 8 (≈ 4.08 µM) | 16 (≈ 8.17 µM) | 8 (≈ 4.08 µM) | 16 (≈ 8.17 µM) | 4 (≈ 2.04 µM) | 8 (≈ 4.08 µM) | 32 (≈ 16.3 µM) | >32 | >32 | 16 (≈ 8.17 µM) | MIC 100% ([11]; Candida auris DI17-47): 16 µg/mL (≈ 8.17 µM); MIC 100% ([11]; Candida auris DI17-48): 16 µg/mL (≈ 8.17 µM); MIC 100% [12]: 8 µg/mL (≈ 4.08 µM); MIC 100% ([13]; Fusarium F1 (F. oxysporum)): 8 µg/mL (≈ 4.08 µM); MIC 100% ([13]; Fusarium F2 (F. oxysporum)): 16 µg/mL (≈ 8.17 µM)
3 | CC[C@H](C)[C@H](NC(=O)[C@H](CCCNC(=N)N)NC(=O)[C@@H](NC(=O)[C@H](CS)NC(=O)[C@H](Cc1ccccc1)NC(=O)[C@H](CS)NC(=O)[C@H](CCCNC(=N)N)NC(=O)[C@H](CCCNC(=N)N)NC(=O)[C@H](CCCNC(=N)N)NC(=O)[C@H](Cc1ccccc1)NC(=O)CNC(=O)[C@H](CCCNC(=N)N)NC(=O)[C@H](CS)NC(=O)[C@H](CCCNC(=N)N)NC(=O)CNC(=O)CN)[C@@H](C)O)C(=O)N[C@@H](CS)C(N)=O [GMA4C_V2A] (H-GGRCRGFRRRCFCTRIC-NH2; N-terminus assumed) | 3 | 6 (≈ 12.3 µg/mL) | 3 (≈ 6.14 µg/mL) | >6 | 6 | 3 | 6 | 8 (≈ 3.91 µM) | 16 (≈ 7.82 µM) | 16 (≈ 7.82 µM) | 8 (≈ 3.91 µM) | 16 (≈ 7.82 µM) | 16 (≈ 7.82 µM) | 16 (≈ 7.82 µM) | 8 (≈ 3.91 µM) | 8 (≈ 3.91 µM) | 32 (≈ 15.6 µM) | >32 | >32 | 16 (≈ 7.82 µM) | MIC 100% ([11]; Candida auris DI17-47): 16 µg/mL (≈ 7.82 µM); MIC 100% ([11]; Candida auris DI17-48): 16 µg/mL (≈ 7.82 µM); MIC 100% [12]: 16 µg/mL (≈ 7.82 µM); MIC 100% ([13]; Fusarium F1 (F. oxysporum)): 8 µg/mL (≈ 3.91 µM); MIC 100% ([13]; Fusarium F2 (F. oxysporum)): 16 µg/mL (≈ 7.82 µM)
4 | OC(Cn1cncn1)(Cn1cncn1)c1ccc(F)cc1F [Fluconazole] | – | – | – | – | – | – | – | – | – | – | – | – | – | – | – | – | – | – | – | – | MIC ([14]; read-out: MIC alone (μM)): 206 µM; MIC ([14]; read-out: MIC alone μg/ml): 64 µg/mL; MIC ([15]; read-out: MIC alone (μM)): 206 µM; MIC ([15]; read-out: MIC alone μg/ml): 64 µg/mL
